Patent EP4707280A1, “1,4-CINEOLE DERIVATIVE AND INTERMEDIATE THEREOF, HERBICIDE CONTAINING SAID DERIVATIVE AS ACTIVE INGREDIENT, METHOD FOR USING HERBICIDE, AND METHOD FOR PREPARING AGROCHEMICAL COMPOSITION” (HOKKO CHEMICAL INDUSTRY CO., LTD., priority 2023, dated 2024)

Assays:
Assay type in all cases: in vivo
Digitaria ciliaris [1] = assay: Test Example 8: herbicidal effect test by stem and leaf treatment in upland field (low dose); settings: Digitaria ciliaris; 7.5 g per 10 ares; sprayed seven days after sowing, upland soil; 14 days after application; read-out: weed inhibition rate
Echinochloa crus-galli [2] = assay: as above; settings: Echinochloa crus-galli; 7.5 g per 10 ares; sprayed seven days after sowing, upland soil; 14 days after application; read-out: weed inhibition rate
[3] = test system: Echinochloa crus-galli var. formosensis; assay: Test Example 6: herbicidal effect test by application during growth period of paddy rice (low dose); settings: Echinochloa crus-galli; 7.5 g per 10 ares; applied seven days after sowing, flooded pots; 14 days after application; read-out: weed inhibition rate
Method in brief: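 Emulsifiable concentrate, water-diluted, dropped onto flooded paddy pots 7 days post-sowing at 7.5 g active ingredient/10 a. Greenhouse-grown weeds; percent inhibition scored at day 14 after treatment.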

[4] = test system: Echinochloa crus-galli var. formosensis; assay: Test Example 5: herbicidal effect test by soil application in paddy rice (low dose); settings: Echinochloa crus-galli, soil, 336 h; 7.5 g per 10 ares; applied immediately after sowing, flooded pots; 14 days after application; read-out: weed inhibition rate
Method in brief: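 7.5 g a.i./10 a applied by dropper into ~3 cm floodwater immediately post-sowing (seeds 0–1 cm, 30 per species; puddled fertilized paddy soil, glasshouse). Duplicates; day-14 inhibition %.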

Digitaria ciliaris [5] = assay: Test Example 3: herbicidal effect test by soil application in upland field; settings: Digitaria ciliaris, 120 g per 10 ares, sprayed one day after sowing, 14 days after application, read-out: weed inhibition rate
Method in brief: (§1)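 Weed inhibition (%) was assessed 14 days after treatment, in duplicate per concentration group. Seeds had been mixed into the upper 1 cm of upland alluvial loam, and the soil surface was sprayed one day later with the diluted emulsifiable concentrate at 120 g active ingredient per 10 ares.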

Echinochloa crus-galli [6] = assay: as above; settings: Echinochloa crus-galli, 120 g per 10 ares, sprayed one day after sowing, 14 days after application, read-out: weed inhibition rate
Method in brief: as §1

Scirpus juncoides [7] = assay: Test Example 2: herbicidal effect test by application during growth period of paddy rice; settings: Schoenoplectiella juncoides; 120 g per 10 ares; applied seven days after sowing, flooded pots; 14 days after application; read-out: weed inhibition rate
Method in brief: (§2)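 Greenhouse pots of flooded paddy soil, seeded shallowly with 30 seeds per weed, are treated on day 7 by dropper with diluted emulsifiable concentrate equal to 120 g a.i./10 a. Duplicate pots are scored for inhibition rate 14 days post-application.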

[8] = test system: Echinochloa crus-galli var. formosensis; assay: as above; settings: Echinochloa crus-galli; 120 g per 10 ares; applied seven days after sowing, flooded pots; 14 days after application; read-out: weed inhibition rate
Method in brief: as §2

Scirpus juncoides [9] = assay: Test Example 1: herbicidal effect test by soil application in paddy rice; settings: Schoenoplectiella juncoides, soil, 336 h; 120 g active ingredient per 10 ares; applied immediately after sowing, flooded pots; 14 days after application; read-out: weed inhibition rate
Method in brief: (§3)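 Pre-emergence paddy treatment: diluted emulsifiable concentrate applied by dropper at 120 g a.i./10 ares immediately after sowing. Seeds (30 per species, 0–1 cm deep) in fertilized, puddled paddy soil kept under ~3 cm flood in a glass greenhouse.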

[10] = test system: Echinochloa crus-galli var. formosensis; assay: as above; settings: Echinochloa crus-galli, soil, 336 h; 120 g active ingredient per 10 ares; applied immediately after sowing, flooded pots; 14 days after application; read-out: weed inhibition rate
Method in brief: as §3

Digitaria ciliaris [11] = assay: Test Example 7: herbicidal effect test by soil application in upland field (low dose); settings: Digitaria ciliaris, 7.5 g per 10 ares, sprayed one day after sowing, 14 days after application, read-out: weed inhibition rate
Method in brief: (§4)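 Duplicate pots of alluvial loam, seeds incorporated in the surface 1 cm. Soil surface sprayed 1 d after sowing (EC in water, 100 L/10 a; 7.5 g a.i./10 a). Endpoint: % inhibition, day 14.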

Echinochloa crus-galli [12] = assay: as above; settings: Echinochloa crus-galli, 7.5 g per 10 ares, sprayed one day after sowing, 14 days after application, read-out: weed inhibition rate
Method in brief: as §4

Echinochloa crus-galli [13] = assay: Test Example 4: herbicidal effect test by stem and leaf treatment in upland field; settings: Echinochloa crus-galli; 120 g per 10 ares; sprayed seven days after sowing, upland soil; 14 days after application; read-out: weed inhibition rate
Digitaria ciliaris [14] = assay: as above; settings: Digitaria ciliaris; 120 g per 10 ares; sprayed seven days after sowing, upland soil; 14 days after application; read-out: weed inhibition rate

CC(C)C12CC(OCc3cccs3)C(C)(CC1Cl)O2 (stereo not drawn) [1-1323, 2-chloro-1-isopropyl-4-methyl-5-(2-thienylmethoxy)-7-oxabicyclo[2.2.1]heptane]
≥ 80%: inhibition at 75 g/ha (Digitaria ciliaris [1]) | inhibition at 75 g/ha (Echinochloa crus-galli [2]) | inhibition at 75 g/ha [3] | inhibition at 75 g/ha [4] | inhibition at 1200 g/ha (Digitaria ciliaris [5]) | inhibition at 1200 g/ha (Echinochloa crus-galli [6]) | inhibition at 1200 g/ha (Scirpus juncoides [7]) | inhibition at 1200 g/ha [8] | pest or weed control at 1200 g/ha (Scirpus juncoides [9]) | pest or weed control at 1200 g/ha [10] | inhibition at 75 g/ha (Digitaria ciliaris [11]) | inhibition at 75 g/ha (Echinochloa crus-galli [12]) | inhibition at 1200 g/ha (Echinochloa crus-galli [13]) | inhibition at 1200 g/ha (Digitaria ciliaris [14])

CC(C)C12CC(OCc3ccsc3)C(C)(CC1Cl)O2 (stereo not drawn) [1-1324, 2-chloro-1-isopropyl-4-methyl-5-(3-thienylmethoxy)-7-oxabicyclo[2.2.1]heptane]
≥ 80%: inhibition at 75 g/ha (Digitaria ciliaris [1]) | inhibition at 75 g/ha (Echinochloa crus-galli [2]) | inhibition at 75 g/ha [3] | inhibition at 75 g/ha [4] | inhibition at 1200 g/ha (Digitaria ciliaris [5]) | inhibition at 1200 g/ha (Echinochloa crus-galli [6]) | inhibition at 1200 g/ha (Scirpus juncoides [7]) | inhibition at 1200 g/ha [8] | pest or weed control at 1200 g/ha (Scirpus juncoides [9]) | pest or weed control at 1200 g/ha [10] | inhibition at 75 g/ha (Digitaria ciliaris [11]) | inhibition at 75 g/ha (Echinochloa crus-galli [12]) | inhibition at 1200 g/ha (Echinochloa crus-galli [13]) | inhibition at 1200 g/ha (Digitaria ciliaris [14])

CC(C)=CCOC1CC2(C(C)C)OC1(C)CC2Br (stereo not drawn) [1-1334, 5-bromo-1-methyl-2-(3-methylbut-2-enoxy)-4-isopropyl-7-oxabicyclo[2.2.1]heptane]
≥ 80%: inhibition at 75 g/ha (Digitaria ciliaris [1]) | inhibition at 75 g/ha (Echinochloa crus-galli [2]) | inhibition at 75 g/ha [3] | inhibition at 75 g/ha [4] | inhibition at 1200 g/ha (Digitaria ciliaris [5]) | inhibition at 1200 g/ha (Echinochloa crus-galli [6]) | inhibition at 1200 g/ha (Scirpus juncoides [7]) | inhibition at 1200 g/ha [8] | pest or weed control at 1200 g/ha (Scirpus juncoides [9]) | pest or weed control at 1200 g/ha [10] | inhibition at 75 g/ha (Digitaria ciliaris [11]) | inhibition at 75 g/ha (Echinochloa crus-galli [12]) | inhibition at 1200 g/ha (Echinochloa crus-galli [13]) | inhibition at 1200 g/ha (Digitaria ciliaris [14])

CC(C)C12CC(OCc3ccccc3)C(C)(CC1Br)O2 (stereo not drawn) [1-1342, 5-bromo-1-methyl-2-phenylmethoxy-4-isopropyl-7-oxabicyclo[2.2.1]heptane]
≥ 80%: inhibition at 75 g/ha (Digitaria ciliaris [1]) | inhibition at 75 g/ha (Echinochloa crus-galli [2]) | inhibition at 75 g/ha [3] | inhibition at 75 g/ha [4] | inhibition at 1200 g/ha (Digitaria ciliaris [5]) | inhibition at 1200 g/ha (Echinochloa crus-galli [6]) | inhibition at 1200 g/ha (Scirpus juncoides [7]) | inhibition at 1200 g/ha [8] | pest or weed control at 1200 g/ha (Scirpus juncoides [9]) | pest or weed control at 1200 g/ha [10] | inhibition at 75 g/ha (Digitaria ciliaris [11]) | inhibition at 75 g/ha (Echinochloa crus-galli [12]) | inhibition at 1200 g/ha (Echinochloa crus-galli [13]) | inhibition at 1200 g/ha (Digitaria ciliaris [14])

CC(C)C12CC(OCc3ccccn3)C(C)(CC1Br)O2 (stereo not drawn) [1-1386, 2-[(5-bromo-1-methyl-4-isopropyl-7-oxabicyclo[2.2.1]heptan-2-yl)oxymethyl]pyridine]
≥ 80%: inhibition at 75 g/ha (Digitaria ciliaris [1]) | inhibition at 75 g/ha (Echinochloa crus-galli [2]) | inhibition at 75 g/ha [3] | inhibition at 75 g/ha [4] | inhibition at 1200 g/ha (Digitaria ciliaris [5]) | inhibition at 1200 g/ha (Echinochloa crus-galli [6]) | inhibition at 1200 g/ha (Scirpus juncoides [7]) | inhibition at 1200 g/ha [8] | pest or weed control at 1200 g/ha (Scirpus juncoides [9]) | pest or weed control at 1200 g/ha [10] | inhibition at 75 g/ha (Digitaria ciliaris [11]) | inhibition at 75 g/ha (Echinochloa crus-galli [12]) | inhibition at 1200 g/ha (Echinochloa crus-galli [13]) | inhibition at 1200 g/ha (Digitaria ciliaris [14])

CC(C)C12CC(OCc3cccs3)C(C)(CC1Br)O2 (stereo not drawn) [1-1389, 5-bromo-1-methyl-4-isopropyl-2-(thiophen-2-ylmethoxy)-7-oxabicyclo[2.2.1]heptane]
≥ 80%: inhibition at 75 g/ha (Digitaria ciliaris [1]) | inhibition at 75 g/ha (Echinochloa crus-galli [2]) | inhibition at 75 g/ha [3] | inhibition at 75 g/ha [4] | inhibition at 1200 g/ha (Digitaria ciliaris [5]) | inhibition at 1200 g/ha (Echinochloa crus-galli [6]) | inhibition at 1200 g/ha (Scirpus juncoides [7]) | inhibition at 1200 g/ha [8] | pest or weed control at 1200 g/ha (Scirpus juncoides [9]) | pest or weed control at 1200 g/ha [10] | inhibition at 75 g/ha (Digitaria ciliaris [11]) | inhibition at 75 g/ha (Echinochloa crus-galli [12]) | inhibition at 1200 g/ha (Echinochloa crus-galli [13]) | inhibition at 1200 g/ha (Digitaria ciliaris [14])
